{
  "source": "ChEMBL document CHEMBL6120947",
  "about": "“Synthesis and Antiosteoporotic Characterization of Diselenyl Maleimides: Discovery of a Potent Agent for the Treatment of Osteoporosis by Targeting RANKL” (J Med Chem, 2024)",
  "key": {"Mus musculus [1]": {"system": "Mus musculus", "assay": "Anti-osteoporosis effect in OVX-induced osteoporosis C57BL/6 mouse model assessed as increase in number of osteoclasts to bone surface area ratio at 10 mg/kg, po administered every other day for 8 weeks by TRAP staining based analysis", "assay_type": "functional, organism-based"}, "BMDM [2]": {"system": "BMDM", "assay": "Inhibition of osteoclastogenesis in M-CSF/RANKL-induced osteoclast differentiation in C57BL/6J mouse BMDM cells assessed as reduction in c-Fos level measured after 5 days by Western blot analysis", "assay_type": "functional, cell-based", "conditions": "dose <= 2.0 µM, time 5.0 day"}, "BMDM [3]": {"system": "BMDM", "assay": "Effect in p38 level in M-CSF/RANKL-induced osteoclast differentiation in C57BL/6J mouse BMDM cells at 1 uM measured upto 60 mins by Western blot analysis", "assay_type": "functional, cell-based"}, "BMDM [4]": {"system": "BMDM", "assay": "Inhibition of osteoclastogenesis in M-CSF/RANKL-induced osteoclast differentiation in C57BL/6J mouse BMDM cells assessed as reduction in p65 phosphorylation at 1 uM measured upto 60 mins by Western blot analysis", "assay_type": "functional, cell-based"}, "Mus musculus [5]": {"system": "Mus musculus", "assay": "Anti-osteoporosis effect in OVX-induced osteoporosis C57BL/6 mouse model assessed as increase in Tb.N value at 10 mg/kg, po administered every other day for 8 weeks by micro-CT analysis", "assay_type": "functional, organism-based"}, "BMDM [6]": {"system": "BMDM", "assay": "Inhibition of osteoclastogenesis in M-CSF/RANKL-induced osteoclast differentiation in C57BL/6J mouse BMDM cells assessed as reduction in MMP-9 level measured after 5 days by Western blot analysis", "assay_type": "functional, cell-based", "conditions": "dose <= 2.0 µM, time 5.0 day"}, "BMDM [7]": {"system": "BMDM", "assay": "Inhibition of osteoclastogenesis in M-CSF/RANKL-induced osteoclast differentiation in C57BL/6J mouse BMDM cells assessed as reduction in MMP-9 mRNA level measured after 5 days by qRT-PCR analysis", "assay_type": "functional, cell-based", "conditions": "dose <= 2.0 µM, time 5.0 day"}, "[8]": {"assay": "Inhibition of C57BL/6 mouse T cell proliferation upto 2 uM incubated for 5 days by APC-Annexin V staining based analysis", "assay_type": "toxicity", "conditions": "120 h, time 5 day"}, "RAW264.7": {"system": "RAW264.7", "assay": "Inhibition of osteoclastogenesis in RANKL-induced osteoclast differentiation in mouse RAW264.7 cells incubated for 4 days by TRAP staining based analysis", "assay_type": "functional, cell-based", "conditions": "time 4.0 day"}, "BMDM [9]": {"system": "BMDM", "assay": "Inhibition of osteoclastogenesis in M-CSF/RANKL-induced osteoclast differentiation in C57BL/6J mouse BMDM cells assessed as suppression of osteoclast nuclei number measured after 7 days by F-actin ring-TRITC phalloidin staining based analysis", "assay_type": "functional, cell-based", "conditions": "dose <= 2.0 µM, time 7.0 day"}, "[10]": {"assay": "Toxicity in OVX-induced osteoporosis C57BL/6 mouse model assessed as pathological change in heart at 10 mg/kg, po administered every other day for 8 weeks by H and E staining based analysis", "assay_type": "organism-based", "conditions": "in vivo, 1344 h"}, "BMDM [11]": {"system": "BMDM", "assay": "Effect in p65 level in M-CSF/RANKL-induced osteoclast differentiation in C57BL/6J mouse BMDM cells at 1 uM measured upto 60 mins by Western blot analysis", "assay_type": "functional, cell-based"}, "BMDM [12]": {"system": "BMDM", "assay": "Inhibition of osteoclastogenesis in M-CSF/RANKL-induced osteoclast differentiation in C57BL/6J mouse BMDM cells assessed as decrease in c-Fos mRNA level at 1 uM measured for 5 days by qRT-PCR analysis", "assay_type": "functional, cell-based", "conditions": "time 5.0 day"}, "BMDM [13]": {"system": "BMDM", "assay": "Effect in ERK level in M-CSF/RANKL-induced osteoclast differentiation in C57BL/6J mouse BMDM cells at 1 uM measured upto 60 mins by Western blot analysis", "assay_type": "functional, cell-based"}, "BMDM [14]": {"system": "BMDM", "assay": "Inhibition of osteoclastogenesis in M-CSF/RANKL-induced osteoclast differentiation in C57BL/6J mouse BMDM cells assessed as reduction in TRAP mRNA level measured after 5 days by qRT-PCR analysis", "assay_type": "functional, cell-based", "conditions": "dose <= 2.0 µM, time 5.0 day"}, "BMDM [15]": {"system": "BMDM", "assay": "Inhibition of osteoclastogenesis in M-CSF/RANKL-induced osteoclast differentiation in C57BL/6J mouse BMDM cells assessed as suppression of multinucleated osteoclasts formation incubated for 6 days by TRAP staining based analysis", "assay_type": "functional, cell-based"}, "Mus musculus [16]": {"system": "Mus musculus", "assay": "Anti-osteoporosis effect in OVX-induced osteoporosis C57BL/6 mouse model assessed as improvement of bone surface in femur at 10 mg/kg, po administered every other day for 8 weeks by H and E staining based analysis", "assay_type": "functional, organism-based"}, "MC3T3-E1 [17]": {"system": "MC3T3-E1", "assay": "Cytotoxicity against mouse MC3T3-E1 cells at 0.5 to 2 uM incubated for 7 days by MTT assay", "assay_type": "toxicity, cell-based", "conditions": "mc3t3-e1, 168 h, dose 0.5-2 µM, time 7 day"}, "MC3T3-E1 [18]": {"system": "MC3T3-E1", "assay": "Effect on osteoblast differentiation in mouse MC3T3-E1 cells assessed as change in collagen I level at 0.5 to 2 uM incubated for 7 days by Western blot analysis", "assay_type": "functional, cell-based", "conditions": "dose 0.5-2 µM, time 7.0 day"}, "BMDM [19]": {"system": "BMDM", "assay": "Inhibition of osteoclastogenesis in M-CSF/RANKL-induced osteoclast differentiation in C57BL/6J mouse BMDM cells assessed as reduction in I-kappaB-alpha phosphorylation at 1 uM measured upto 60 mins by Western blot analysis", "assay_type": "functional, cell-based"}, "[20]": {"assay": "Toxicity in OVX-induced osteoporosis C57BL/6 mouse model assessed as pathological change in kidney at 10 mg/kg, po administered every other day for 8 weeks by H and E staining based analysis", "assay_type": "organism-based", "conditions": "in vivo, 1344 h"}, "Mus musculus [21]": {"system": "Mus musculus", "assay": "Anti-osteoporosis effect in OVX-induced osteoporosis C57BL/6 mouse model assessed as reduction in bone mass loss in distal femur at 10 mg/kg, po administered every other day for 8 weeks by micro-CT analysis", "assay_type": "functional, organism-based"}, "BMDM [22]": {"system": "BMDM", "assay": "Inhibition of osteoclastogenesis in M-CSF/RANKL-induced osteoclast differentiation in C57BL/6J mouse BMDM cells assessed as reduction in DC-STAMP mRNA level measured after 5 days by qRT-PCR analysis", "assay_type": "functional, cell-based", "conditions": "dose <= 2.0 µM, time 5.0 day"}, "MC3T3-E1 [23]": {"system": "MC3T3-E1", "assay": "Effect on osteoblast differentiation in mouse MC3T3-E1 cells assessed as change in Runx2 mRNA level at 0.5 to 2 uM incubated for 7 days by qRT-PCR analysis", "assay_type": "functional, cell-based", "conditions": "dose 0.5-2 µM, time 7.0 day"}, "BMDM [24]": {"system": "BMDM", "assay": "Inhibition of osteoclastogenesis in M-CSF/RANKL-induced osteoclast differentiation in C57BL/6J mouse BMDM cells assessed as suppression of osteoclast size measured after 7 days by F-actin ring-TRITC phalloidin staining based analysis", "assay_type": "functional, cell-based", "conditions": "dose <= 2.0 µM, time 7.0 day"}, "MC3T3-E1 [25]": {"system": "MC3T3-E1", "assay": "Effect on osteoblast differentiation in mouse MC3T3-E1 cells assessed as change in ALP level at 0.5 to 2 uM incubated for 7 days by inverted microscopy", "assay_type": "functional, cell-based", "conditions": "dose 0.5-2 µM, time 7.0 day"}, "[26]": {"assay": "Toxicity in OVX-induced osteoporosis C57BL/6 mouse model assessed as body weight change at 10 mg/kg, po administered every other day for 8 weeks", "assay_type": "organism-based", "conditions": "in vivo, 1344 h"}, "MC3T3-E1 [27]": {"system": "MC3T3-E1", "assay": "Effect on osteoblast differentiation in mouse MC3T3-E1 cells assessed as change in BMP2 level at 0.5 to 2 uM incubated for 7 days by Western blot analysis", "assay_type": "functional, cell-based", "conditions": "dose 0.5-2 µM, time 7.0 day"}, "MC3T3-E1 [28]": {"system": "MC3T3-E1", "assay": "Effect on osteoblast differentiation in mouse MC3T3-E1 cells assessed as change in ALP level at 0.5 to 2 uM incubated for 7 days by Western blot analysis", "assay_type": "functional, cell-based", "conditions": "dose 0.5-2 µM, time 7.0 day"}, "BMDM [29]": {"system": "BMDM", "assay": "Inhibition of osteoclastogenesis in M-CSF/RANKL-induced osteoclast differentiation in C57BL/6J mouse BMDM cells assessed as reduction in ERK phosphorylation at 1 uM measured upto 60 mins by Western blot analysis", "assay_type": "functional, cell-based"}},
  "note": "The source made the active and inactive calls. No cut-off for these calls is given here.",
  "data": [
    {"compound": "O=C1C([Se]c2ccccc2)=C([Se]c2ccccc2)C(=O)N1Cc1ccccc1", "values": [
      {"measurement": "Activity", "setting": "Mus musculus [1]", "value": "Active; Displayed Similar Effect With That Exhibited By Alendronate"},
      {"measurement": "inhibition", "setting": "BMDM [2]", "value": "Dose-dependent-effect"},
      {"measurement": "Activity", "setting": "BMDM [3]", "value": "No effect"},
      {"measurement": "inhibition", "setting": "BMDM [4]", "value": "Active"},
      {"measurement": "Activity", "setting": "Mus musculus [5]", "value": "Active; Displayed Similar Effect With That Exhibited By Alendronate"},
      {"measurement": "inhibition", "setting": "BMDM [6]", "value": "Dose-dependent-effect"},
      {"measurement": "inhibition", "setting": "BMDM [7]", "value": "Dose-dependent-effect"},
      {"measurement": "Activity", "setting": "[8]", "value": "Non-toxic"},
      {"measurement": "inhibition", "setting": "RAW264.7", "value": "Active"},
      {"measurement": "inhibition", "setting": "BMDM [9]", "value": "Dose-dependent-effect"},
      {"measurement": "Activity", "setting": "[10]", "value": "Non-toxic"},
      {"measurement": "Activity", "setting": "BMDM [11]", "value": "No effect"},
      {"measurement": "inhibition", "setting": "BMDM [12]", "value": "Active"},
      {"measurement": "Activity", "setting": "BMDM [13]", "value": "No effect"},
      {"measurement": "inhibition", "setting": "BMDM [14]", "value": "Dose-dependent-effect"},
      {"measurement": "IC50", "setting": "BMDM [15]; 144 h", "value": 360, "unit": "nM"},
      {"measurement": "inhibition", "setting": "BMDM [15]; dose <= 2.0 µM, time 6.0 day", "value": "Dose-dependent-effect"},
      {"measurement": "Activity", "setting": "Mus musculus [16]", "value": "Active; Displayed Similar Effect With That Exhibited By Alendronate"},
      {"measurement": "Activity", "setting": "MC3T3-E1 [17]", "value": "Non-toxic"},
      {"measurement": "Activity", "setting": "MC3T3-E1 [18]", "value": "No effect"},
      {"measurement": "inhibition", "setting": "BMDM [19]", "value": "Active"},
      {"measurement": "Activity", "setting": "[20]", "value": "Non-toxic"},
      {"measurement": "Activity", "setting": "Mus musculus [21]", "value": "Active; Displayed Similar Effect With That Exhibited By Alendronate"},
      {"measurement": "inhibition", "setting": "BMDM [22]", "value": "Dose-dependent-effect"},
      {"measurement": "Activity", "setting": "MC3T3-E1 [23]", "value": "No effect"},
      {"measurement": "inhibition", "setting": "BMDM [24]", "value": "Dose-dependent-effect"},
      {"measurement": "Activity", "setting": "MC3T3-E1 [25]", "value": "No effect"},
      {"measurement": "Activity", "setting": "[26]", "value": "Non-toxic"},
      {"measurement": "Activity", "setting": "MC3T3-E1 [27]", "value": "No effect"},
      {"measurement": "Activity", "setting": "MC3T3-E1 [28]", "value": "No effect"},
      {"measurement": "inhibition", "setting": "BMDM [29]", "value": "Active"}
    ]}
  ]
}
